# Measured values from patent publication US10604524B2, “Pyrropyrimidine compounds as MNKs inhibitors” (LIFEARC, priority 2015, dated 2020).
# How the values were obtained:
# PIP4K2A = PIP4K2A (Homo sapiens, UniProt P48426); assay: Kinase selectivity screen; settings: read-out: % Inhibition PIP4K2A
# DDR2 = DDR2 (Homo sapiens, UniProt Q16832); assay: Kinase selectivity screen; settings: read-out: % Inhibition DDR2
# Full-length human MNK1 = Full-length human MNK1 (Homo sapiens, UniProt Q9BUB5, T385D); assay: MNK1 biochemical IC50 assay (Caliper mobility shift)
# JAK3 = JAK3 (Homo sapiens, UniProt P52333); assay: Kinase selectivity screen; settings: read-out: % Inhibition JAK3
# KDR = KDR (Homo sapiens, UniProt P35968); assay: Kinase selectivity screen; settings: read-out: % Inhibition KDR
# TGFBR1 = TGFBR1 (Homo sapiens, UniProt P36897); assay: Kinase selectivity screen; settings: read-out: % Inhibition TGFBR1
# AURKB = AURKB (Homo sapiens, UniProt Q96GD4); assay: Kinase selectivity screen; settings: read-out: % Inhibition AURKB
# FGFR2 = FGFR2 (Homo sapiens, UniProt P21802); assay: Kinase selectivity screen; settings: read-out: % Inhibition FGFR2
# CaMK1 = CaMK1 (Homo sapiens, UniProt Q14012); assay: Kinase selectivity screen; settings: read-out: % Inhibition CaMK1
# MARK1 = MARK1 (Homo sapiens, UniProt Q9P0L2); assay: Kinase selectivity screen; settings: read-out: % Inhibition MARK1
# RPS6KA5 = RPS6KA5 (Homo sapiens, UniProt O75582); assay: Kinase selectivity screen; settings: read-out: % Inhibition RPS6KA5
# RAF1 = RAF1 (Homo sapiens, UniProt P04049); assay: Kinase selectivity screen; settings: read-out: % Inhibition RAF1
# MARK2 = MARK2 (Homo sapiens, UniProt Q7KZI7); assay: Kinase selectivity screen; settings: read-out: % Inhibition MARK2
# FLT1 = FLT1 (Homo sapiens, UniProt P17948); assay: Kinase selectivity screen; settings: read-out: % Inhibition FLT1
# MAP3K9 = MAP3K9 (Homo sapiens, UniProt P80192); assay: Kinase selectivity screen; settings: read-out: % Inhibition MAP3K9
# MAPKAPK2 = MAPKAPK2 (Homo sapiens, UniProt P49137); assay: Kinase selectivity screen; settings: read-out: % Inhibition MAPKAPK2
# TBK1 = TBK1 (Homo sapiens, UniProt Q9UHD2); assay: Kinase selectivity screen; settings: read-out: % Inhibition TBK1
# EPHA5 = EPHA5 (Homo sapiens, UniProt P54756); assay: Kinase selectivity screen; settings: read-out: % Inhibition EPHA5
# PIK3CG = PIK3CG (Homo sapiens, UniProt P48736); assay: Kinase selectivity screen; settings: read-out: % Inhibition PIK3CG
# MAP2K1 = MAP2K1 (Homo sapiens, UniProt Q02750); assay: Kinase selectivity screen; settings: read-out: % Inhibition MAP2K1
# NTRK1 = NTRK1 (Homo sapiens, UniProt P04629); assay: Kinase selectivity screen; settings: read-out: % Inhibition NTRK1
# CDK2/CCNA2 = CDK2/CCNA2 (Homo sapiens, UniProt P24941); assay: Kinase selectivity screen; settings: read-out: % Inhibition CDK2/CCNA2
# MINK1 = MINK1 (Homo sapiens, UniProt Q8N4C8); assay: Kinase selectivity screen; settings: read-out: % Inhibition MINK1
# AURKC = AURKC (Homo sapiens, UniProt Q9UQB9); assay: Kinase selectivity screen; settings: read-out: % Inhibition AURKC
# CDK1/CCNB1 = CDK1/CCNB1 (Homo sapiens, UniProt P06493); assay: Kinase selectivity screen; settings: read-out: % Inhibition CDK1/CCNB1
# ROCK1 = ROCK1 (Homo sapiens, UniProt Q13464); assay: Kinase selectivity screen; settings: read-out: % Inhibition ROCK1
# PIK3CA = PIK3CA (Homo sapiens, UniProt P42336); assay: Kinase selectivity screen; settings: read-out: % Inhibition PIK3CA
# INSRR = INSRR (Homo sapiens, UniProt P14616); assay: Kinase selectivity screen; settings: read-out: % Inhibition INSRR
# ALK = ALK (Homo sapiens, UniProt Q9UM73); assay: Kinase selectivity screen; settings: read-out: % Inhibition ALK
# PRKG1 = PRKG1 (Homo sapiens, UniProt Q13976); assay: Kinase selectivity screen; settings: read-out: % Inhibition PRKG1
# MAP3K7 = MAP3K7 (Homo sapiens, UniProt O43318); assay: Kinase selectivity screen; settings: read-out: % Inhibition MAP3K7
# MAPK14 = MAPK14 (Homo sapiens, UniProt Q16539); assay: Kinase selectivity screen; settings: read-out: % Inhibition MAPK14
# PRKCE = PRKCE (Homo sapiens, UniProt Q02156); assay: Kinase selectivity screen; settings: read-out: % Inhibition PRKCE
# PIK3CD = PIK3CD (Homo sapiens, UniProt O00329); assay: Kinase selectivity screen; settings: read-out: % Inhibition PIK3CD
# Sequence of MARK1 (Q9P0L2 whole entry, species assumed): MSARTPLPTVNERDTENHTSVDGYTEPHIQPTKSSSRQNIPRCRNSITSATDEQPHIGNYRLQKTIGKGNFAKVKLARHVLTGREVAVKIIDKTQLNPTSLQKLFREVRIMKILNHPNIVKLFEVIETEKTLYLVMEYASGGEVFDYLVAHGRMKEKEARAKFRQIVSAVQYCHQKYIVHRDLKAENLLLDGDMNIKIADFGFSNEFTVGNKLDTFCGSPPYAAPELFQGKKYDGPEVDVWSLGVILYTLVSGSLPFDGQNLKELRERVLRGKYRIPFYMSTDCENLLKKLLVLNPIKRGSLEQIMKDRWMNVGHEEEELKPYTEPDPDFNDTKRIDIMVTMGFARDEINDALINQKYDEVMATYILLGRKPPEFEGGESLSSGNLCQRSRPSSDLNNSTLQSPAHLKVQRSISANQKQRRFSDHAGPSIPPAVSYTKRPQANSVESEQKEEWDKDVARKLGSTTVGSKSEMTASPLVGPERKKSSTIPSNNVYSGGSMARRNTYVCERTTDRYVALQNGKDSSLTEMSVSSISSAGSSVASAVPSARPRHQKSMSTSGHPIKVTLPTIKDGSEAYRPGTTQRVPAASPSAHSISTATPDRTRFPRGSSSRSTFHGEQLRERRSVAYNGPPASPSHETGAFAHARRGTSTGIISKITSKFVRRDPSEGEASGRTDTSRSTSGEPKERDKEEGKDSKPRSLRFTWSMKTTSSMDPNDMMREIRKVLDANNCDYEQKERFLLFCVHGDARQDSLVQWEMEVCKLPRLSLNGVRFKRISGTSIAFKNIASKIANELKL
# Sequence of RAF1 (P04049 whole entry, species assumed): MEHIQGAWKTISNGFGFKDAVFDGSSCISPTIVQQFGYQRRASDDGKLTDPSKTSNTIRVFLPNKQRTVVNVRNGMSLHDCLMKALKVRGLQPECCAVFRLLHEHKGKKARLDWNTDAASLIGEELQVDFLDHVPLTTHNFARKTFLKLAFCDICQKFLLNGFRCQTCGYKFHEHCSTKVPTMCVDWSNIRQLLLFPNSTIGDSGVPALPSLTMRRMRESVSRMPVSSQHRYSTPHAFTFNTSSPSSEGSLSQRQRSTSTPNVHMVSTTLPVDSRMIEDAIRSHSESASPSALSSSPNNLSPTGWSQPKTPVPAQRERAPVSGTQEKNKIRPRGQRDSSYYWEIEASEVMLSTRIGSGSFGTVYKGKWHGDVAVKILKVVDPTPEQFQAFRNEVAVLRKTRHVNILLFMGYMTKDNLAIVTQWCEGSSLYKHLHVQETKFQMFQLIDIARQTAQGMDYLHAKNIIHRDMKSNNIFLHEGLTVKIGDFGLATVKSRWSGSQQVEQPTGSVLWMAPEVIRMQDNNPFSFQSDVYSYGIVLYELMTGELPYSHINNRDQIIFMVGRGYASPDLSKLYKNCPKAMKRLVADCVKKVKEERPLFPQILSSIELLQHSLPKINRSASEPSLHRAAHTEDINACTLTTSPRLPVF
# Sequence of MAP2K1 (Q02750 whole entry, species assumed): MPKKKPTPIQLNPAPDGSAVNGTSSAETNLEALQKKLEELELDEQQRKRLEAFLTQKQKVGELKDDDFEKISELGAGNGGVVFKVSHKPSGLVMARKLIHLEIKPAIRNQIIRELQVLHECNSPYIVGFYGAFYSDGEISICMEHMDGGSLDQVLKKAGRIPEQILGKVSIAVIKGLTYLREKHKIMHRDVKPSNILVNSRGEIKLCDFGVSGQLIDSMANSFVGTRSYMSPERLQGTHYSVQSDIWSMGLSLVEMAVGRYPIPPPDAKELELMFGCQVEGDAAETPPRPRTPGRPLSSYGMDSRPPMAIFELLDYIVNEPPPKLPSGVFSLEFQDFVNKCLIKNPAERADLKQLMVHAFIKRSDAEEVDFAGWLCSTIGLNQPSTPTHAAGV
# Sequence of FGFR2 (P21802 22-821, species assumed): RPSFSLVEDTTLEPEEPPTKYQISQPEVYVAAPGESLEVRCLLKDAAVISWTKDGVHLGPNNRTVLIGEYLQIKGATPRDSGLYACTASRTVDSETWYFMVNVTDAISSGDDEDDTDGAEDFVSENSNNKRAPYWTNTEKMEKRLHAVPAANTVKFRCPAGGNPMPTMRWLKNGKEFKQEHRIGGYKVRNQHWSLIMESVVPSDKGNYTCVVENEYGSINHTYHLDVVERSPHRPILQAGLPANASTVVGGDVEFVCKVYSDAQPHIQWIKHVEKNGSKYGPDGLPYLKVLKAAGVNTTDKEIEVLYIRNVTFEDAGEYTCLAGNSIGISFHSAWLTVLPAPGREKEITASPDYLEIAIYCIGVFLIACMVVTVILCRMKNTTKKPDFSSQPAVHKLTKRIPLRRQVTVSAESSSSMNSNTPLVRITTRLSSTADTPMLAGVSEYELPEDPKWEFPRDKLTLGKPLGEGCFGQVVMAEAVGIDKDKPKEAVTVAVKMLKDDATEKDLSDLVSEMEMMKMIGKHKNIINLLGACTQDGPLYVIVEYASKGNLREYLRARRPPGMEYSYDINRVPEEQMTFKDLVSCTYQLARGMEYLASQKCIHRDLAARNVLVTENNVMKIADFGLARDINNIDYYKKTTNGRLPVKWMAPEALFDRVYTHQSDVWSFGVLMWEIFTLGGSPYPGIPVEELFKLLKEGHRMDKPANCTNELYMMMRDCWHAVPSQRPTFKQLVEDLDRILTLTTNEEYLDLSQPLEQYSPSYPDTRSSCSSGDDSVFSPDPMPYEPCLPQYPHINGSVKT
# Sequence of NTRK1 (P04629 33-796, species assumed): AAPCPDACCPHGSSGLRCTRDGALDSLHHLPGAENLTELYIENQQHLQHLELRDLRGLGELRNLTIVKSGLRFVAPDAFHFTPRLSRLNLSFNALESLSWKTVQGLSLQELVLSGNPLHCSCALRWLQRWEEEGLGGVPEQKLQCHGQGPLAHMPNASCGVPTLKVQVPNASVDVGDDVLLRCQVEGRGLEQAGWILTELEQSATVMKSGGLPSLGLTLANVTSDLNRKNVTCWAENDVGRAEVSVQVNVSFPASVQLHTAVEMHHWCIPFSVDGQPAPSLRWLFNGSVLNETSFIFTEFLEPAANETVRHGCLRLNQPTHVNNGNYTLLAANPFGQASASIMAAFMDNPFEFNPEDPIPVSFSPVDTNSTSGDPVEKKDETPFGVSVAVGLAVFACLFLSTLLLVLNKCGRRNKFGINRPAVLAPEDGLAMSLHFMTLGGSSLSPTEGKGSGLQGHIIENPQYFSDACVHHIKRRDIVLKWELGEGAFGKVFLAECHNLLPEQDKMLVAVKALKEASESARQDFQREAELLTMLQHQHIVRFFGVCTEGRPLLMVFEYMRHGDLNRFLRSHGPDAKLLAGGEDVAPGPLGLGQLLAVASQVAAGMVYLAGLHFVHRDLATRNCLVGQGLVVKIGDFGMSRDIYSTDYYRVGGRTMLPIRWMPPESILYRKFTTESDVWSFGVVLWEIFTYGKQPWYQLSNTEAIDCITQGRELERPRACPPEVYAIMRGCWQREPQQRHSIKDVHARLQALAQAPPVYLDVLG
# Sequence of ALK (Q9UM73 19-1620, species assumed): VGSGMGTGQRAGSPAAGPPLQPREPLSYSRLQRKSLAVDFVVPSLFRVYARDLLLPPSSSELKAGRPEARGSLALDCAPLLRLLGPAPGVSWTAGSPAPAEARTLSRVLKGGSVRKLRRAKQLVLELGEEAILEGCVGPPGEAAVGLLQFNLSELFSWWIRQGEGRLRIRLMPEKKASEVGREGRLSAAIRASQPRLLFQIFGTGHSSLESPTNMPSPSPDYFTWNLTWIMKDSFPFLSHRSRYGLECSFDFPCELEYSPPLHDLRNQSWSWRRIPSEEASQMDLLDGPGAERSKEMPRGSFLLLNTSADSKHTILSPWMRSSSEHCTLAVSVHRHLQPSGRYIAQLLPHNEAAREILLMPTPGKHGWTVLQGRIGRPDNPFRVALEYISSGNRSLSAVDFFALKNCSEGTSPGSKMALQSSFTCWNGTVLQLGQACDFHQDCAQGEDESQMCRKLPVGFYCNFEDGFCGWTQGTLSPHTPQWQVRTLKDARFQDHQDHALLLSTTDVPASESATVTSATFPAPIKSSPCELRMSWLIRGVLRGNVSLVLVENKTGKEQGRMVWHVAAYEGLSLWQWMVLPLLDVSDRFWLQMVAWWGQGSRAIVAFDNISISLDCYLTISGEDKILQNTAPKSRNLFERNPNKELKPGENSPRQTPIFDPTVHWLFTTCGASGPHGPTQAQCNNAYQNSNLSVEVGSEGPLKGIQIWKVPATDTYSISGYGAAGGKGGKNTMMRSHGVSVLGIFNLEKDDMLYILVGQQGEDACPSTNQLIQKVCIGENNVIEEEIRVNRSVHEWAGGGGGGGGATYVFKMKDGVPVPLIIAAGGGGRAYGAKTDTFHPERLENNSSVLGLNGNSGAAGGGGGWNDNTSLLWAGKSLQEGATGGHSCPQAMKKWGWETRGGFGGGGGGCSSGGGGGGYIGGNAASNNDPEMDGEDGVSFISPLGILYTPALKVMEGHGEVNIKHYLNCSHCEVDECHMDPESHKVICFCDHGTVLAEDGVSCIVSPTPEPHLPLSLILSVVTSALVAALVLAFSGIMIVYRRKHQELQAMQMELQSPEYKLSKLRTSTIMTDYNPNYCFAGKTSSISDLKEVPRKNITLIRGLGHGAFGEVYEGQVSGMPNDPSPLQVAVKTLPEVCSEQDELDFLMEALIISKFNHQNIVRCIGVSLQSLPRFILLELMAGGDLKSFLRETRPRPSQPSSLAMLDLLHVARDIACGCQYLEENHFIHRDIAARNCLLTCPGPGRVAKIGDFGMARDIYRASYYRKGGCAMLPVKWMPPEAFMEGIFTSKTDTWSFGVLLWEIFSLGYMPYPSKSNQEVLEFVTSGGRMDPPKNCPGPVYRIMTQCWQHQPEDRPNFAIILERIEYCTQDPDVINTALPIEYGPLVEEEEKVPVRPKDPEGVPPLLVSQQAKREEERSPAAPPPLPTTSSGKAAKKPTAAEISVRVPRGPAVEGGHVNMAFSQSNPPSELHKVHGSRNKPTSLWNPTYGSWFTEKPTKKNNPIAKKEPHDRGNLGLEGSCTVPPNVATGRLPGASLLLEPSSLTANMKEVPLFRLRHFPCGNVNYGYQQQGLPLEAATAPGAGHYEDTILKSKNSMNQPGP
smiles,measurement,setting,value
"CC(C)Oc1cc(F)ccc1Nc1ncnc2cc(C(=O)NCCCN(C)C)n(C)c12 [Example 40, N-[3-(dimethylamino)propyl]-4-{[4-fluoro-2-(propan-2-yloxy)phenyl]amino}-5-methyl-5H-pyrrolo[3,2-d]pyrimidine-6-carboxamide]",inhibition at 1 µM,PIP4K2A,7%
same,inhibition at 1 µM,DDR2,2%
same,IC50,Full-length human MNK1,50.1 nM
same,inhibition at 1 µM,JAK3,0%
same,inhibition at 1 µM,KDR,5%
same,inhibition at 1 µM,TGFBR1,0%
same,inhibition at 1 µM,AURKB,14%
same,inhibition at 1 µM,FGFR2,0%
same,inhibition at 1 µM,CaMK1,0%
same,inhibition at 1 µM,MARK1,0%
same,inhibition at 1 µM,RPS6KA5,0%
same,inhibition at 1 µM,RAF1,0%
same,inhibition at 1 µM,MARK2,0%
same,inhibition at 1 µM,FLT1,8%
same,inhibition at 1 µM,MAP3K9,0%
same,inhibition at 1 µM,MAPKAPK2,0%
same,inhibition at 1 µM,TBK1,0%
same,inhibition at 1 µM,EPHA5,0%
same,inhibition at 1 µM,PIK3CG,1%
same,inhibition at 1 µM,MAP2K1,0%
same,inhibition at 1 µM,NTRK1,0%
same,inhibition at 1 µM,CDK2/CCNA2,0%
same,inhibition at 1 µM,MINK1,0%
same,inhibition at 1 µM,AURKC,28%
same,inhibition at 1 µM,CDK1/CCNB1,0%
same,inhibition at 1 µM,ROCK1,0%
same,inhibition at 1 µM,PIK3CA,5%
same,inhibition at 1 µM,INSRR,0%
same,inhibition at 1 µM,ALK,0%
same,inhibition at 1 µM,PRKG1,0%
same,inhibition at 1 µM,MAP3K7,5%
same,inhibition at 1 µM,MAPK14,0%
same,inhibition at 1 µM,PRKCE,0%
same,inhibition at 1 µM,PIK3CD,2%
